Measurements from patent US11246309B2, “Preserving agent for organs or tissue and preservation method for organs or tissue” (ISHIHARA SANGYO KAISHA, LTD., priority 2015, dated 2022).

Experiments:
liver [1] = experiment: Organ preservation test: hepatic histopathological change after preservation at 4° C.; parameters: species or system SD rats; details: additives in UW solution, score 0 to 3.0 per sample
Method: The formulations of preserving solutions containing UW solution, and a combination of quercetin and sugar were evaluated using a hepatic histopathological change as an index.
Williams solution only, Williams solution containing only quercetin (10 μg/mL), Williams solution containing only fructose (0.2M), Williams solution containing only sucrose (0.1M), Williams solution containing quercetin (10 μg/mL) and fructose (0.2M), or Williams solution containing quercetin (10 μg/mL) and sucrose (0.1M) was used as an organ perfusion solution. Subsequently, as an organ preserving solution, UW solution only, UW solution containing only quercetin (10 μg/mL), UW solution containing only fructose (0.2M), UW solution containing only sucrose (0.1M), UW solution containing quercetin (10 μg/mL) and fructose (0.2M) or UW solution containing quercetin (10 μg/mL) and sucrose (0.1M) was used.
SD rats (male, body weight=264.1 g to 317.2 g) were injected with heparin from the portal vein under anesthesia. Thereafter, they were perfused with a physiological saline solution (8 cmH2O, about 100 mL) at room temperature, and then perfused with each organ perfusion solution (8 cmH2O, about 100 mL) at room temperature. Thereafter, the liver was excised, immersed in 20 mL of each organ preserving solution, and preserved at 4° C. 1 day after and 2 days after the preservation was started, all liver samples were immobilized using a 10% phosphate buffer formalin aqueous solution, and embedded in paraffin according to the standard method. Each sample was sliced into about 6 μm and a hematoxylin-eosin staining sample was prepared, followed by microscopic examination. The degrees of the observed histopathological change were converted to scores as shown below, and summed as cumulative values.
Score 0: no change was observed, Score 0.5: slight change was observed, Score 1.0: small change was observed, Score 2.0: intermediate change was observed, Score 3.0: great change was observed.

liver [2] = experiment: Organ preservation test: rat liver preserved at 4° C., ALT in organ immersion solution; parameters: species or system SD rats; details: additives in UW solution, liver at 4° C., mean of n=3 ± SD
Method: The protective action of a preserving solution for organs or tissue used in organ transplantation or tissue transplantation was assumed, and formulations of preservative solutions containing UW solution, and a combination of quercetin and sugar were evaluated using liver damage degree as an index. Williams solution (GIBCO, No. 12551-032) only, Williams solution containing quercetin (Sigma-Aldrich, 337951-25G) (10 μg/mL), Williams solution containing quercetin (10 μg/mL) and fructose (0.05M to 0.4M) (Kanto Chemical Co., Inc., Code No. 16065-00) (0.05M to 0.4M), or Williams solution containing quercetin (10 μg/mL) and sucrose (0.025M to 0.2M) (Nacalai Tesque, Inc., Code No. 30404-45) (0.025M to 0.2M) was used as an organ perfusion solution. Subsequently, UW solution (VSP1000, […] (cold storage solution) 1000 mL: Astellas Pharma Inc.) only, UW solution containing quercetin (10 μg/mL), UW solution containing quercetin (10 μg/mL) and fructose (0.05M to 0.4M), or UW solution containing quercetin (10 μg/mL) and sucrose (0.025M to 0.2M) was used as an organ preserving solution. SD rats (male, body weight=255.4 g to 339.0 g) were injected with heparin from the portal vein under anesthesia. Thereafter, they were perfused with a physiological saline solution (8 cmH2O, about 100 mL) at room temperature, and then perfused with each organ perfusion solution (8 cmH2O, about 100 mL) at room temperature. Thereafter, the liver was excised, immersed in 20 mL of each organ preserving solution, and preserved at 4° C. A part of each organ preserving solution was collected at 1 day after, 3 days after, 5 days after, and 7 days after the preservation was started, and ALT (alanine aminotransferase) (IU/L) was measured as an index of the degree of liver damage due to low-temperature preservation. The measured ALT are shown in Tables 1 and 2 (average value of n=3±standard deviation).

[3] = 1 day after preservation at 4° C. was started
[4] = 2 days after preservation at 4° C. was started

OC[C@H]1O[C@@](CO)(O[C@H]2O[C@H](CO)[C@@H](O)[C@H](O)[C@H]2O)[C@@H](O)[C@@H]1O [0.1M Sucrose, sucrose]
Histopathological Change: Diffuse Vacuolar Degeneration (Cumulative Score of n = 3) (liver [1]; [3]): 3.0 | Histopathological Change: Sporadic Single Cell Cloudy Swelling (Cumulative Score of n = 3) (liver [1]; [3]): 2.0 | Histopathological Change: Sporadic Single Cell Necrosis (Cumulative Score of n = 3) (liver [1]; [3]): 0.5 | Histopathological Change: Diffuse Vacuolar Degeneration (Cumulative Score of n = 3) (liver [1]; [4]): 3.0 | Histopathological Change: Sporadic Single Cell Cloudy Swelling (Cumulative Score of n = 3) (liver [1]; [4]): 2.5 | Histopathological Change: Sporadic Single Cell Necrosis (Cumulative Score of n = 3) (liver [1]; [4]): 1.0

O=C(CO)[C@@H](O)[C@H](O)[C@H](O)CO [0.2M Fructose, fructose]
Histopathological Change: Diffuse Vacuolar Degeneration (Cumulative Score of n = 3) (liver [1]; [3]): 2.0 | Histopathological Change: Sporadic Single Cell Cloudy Swelling (Cumulative Score of n = 3) (liver [1]; [3]): 2.5 | Histopathological Change: Sporadic Single Cell Necrosis (Cumulative Score of n = 3) (liver [1]; [3]): 1.0 | Histopathological Change: Diffuse Vacuolar Degeneration (Cumulative Score of n = 3) (liver [1]; [4]): 1.5 | Histopathological Change: Sporadic Single Cell Cloudy Swelling (Cumulative Score of n = 3) (liver [1]; [4]): 1.0 | Histopathological Change: Sporadic Single Cell Necrosis (Cumulative Score of n = 3) (liver [1]; [4]): 0.5

O=c1c(O)c(-c2ccc(O)c(O)c2)oc2cc(O)cc(O)c12 [Quercetin 10 μg/mL, quercetin]
ALT Value in Organ Immersion Solution (liver [2]; Table 1, 1 day after): 65 ± 71 IU/L | ALT Value in Organ Immersion Solution (liver [2]; Table 1, 3 days after): 90 ± 82 IU/L | ALT Value in Organ Immersion Solution (liver [2]; Table 1, 5 days after): 98 ± 77 IU/L | ALT Value in Organ Immersion Solution (liver [2]; Table 1, 7 days after): 117 ± 71 IU/L | ALT Value in Organ Immersion Solution (liver [2]; Table 2, 1 day after): 62 ± 68 IU/L | ALT Value in Organ Immersion Solution (liver [2]; Table 2, 3 days after): 108 ± 121 IU/L | ALT Value in Organ Immersion Solution (liver [2]; Table 2, 5 days after): 126 ± 135 IU/L | ALT Value in Organ Immersion Solution (liver [2]; Table 2, 7 days after): 148 ± 144 IU/L | Histopathological Change: Diffuse Vacuolar Degeneration (Cumulative Score of n = 3) (liver [1]; [3]): 3.0 | Histopathological Change: Sporadic Single Cell Cloudy Swelling (Cumulative Score of n = 3) (liver [1]; [3]): 1.5 | Histopathological Change: Sporadic Single Cell Necrosis (Cumulative Score of n = 3) (liver [1]; [3]): 0.0 | Histopathological Change: Diffuse Vacuolar Degeneration (Cumulative Score of n = 3) (liver [1]; [4]): 3.0 | Histopathological Change: Sporadic Single Cell Cloudy Swelling (Cumulative Score of n = 3) (liver [1]; [4]): 2.0 | Histopathological Change: Sporadic Single Cell Necrosis (Cumulative Score of n = 3) (liver [1]; [4]): 0.5
